For assay [1], the target named is T1, R120G cryAB (Homo sapiens, UniProt P02511, R120G).
T1 sequence (P02511 1-175 R120G): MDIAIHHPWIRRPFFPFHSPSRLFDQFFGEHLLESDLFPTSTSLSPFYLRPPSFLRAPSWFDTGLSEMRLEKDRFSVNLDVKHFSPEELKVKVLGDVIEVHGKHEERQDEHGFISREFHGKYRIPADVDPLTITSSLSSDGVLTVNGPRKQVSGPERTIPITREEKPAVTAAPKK
As to the kind of experiment: Differential scanning fluorimetry (DSF), shift of apparent Tm. The assay is classed as binding. To be noted: DSF with R120G cryAB; for ACTIVITY (shift in thermal stability at 100 μM): 100 μM compound. How it is done: Differential scanning fluorimetry (DSF) was utilized to identify compounds that stabilize cryAB. In DSF experiments, the melting transition (Tm) of the protein target is measured in the presence of potential ligands (Cummings et al., J Biomol Screen 11, 854 (2006). DSF measures thermal unfolding of the target protein via the fluorescence of intrinsic tryptophans, or (more commonly) a dye, such as 1,8-anilinonapthalenesulfonic (bis-ANS) or Sypro Orange. Binding of a ligand adds free energy to the folded state or key intermediates, which limits unfolding and shifts the apparent Tm. These values are used to calculate the unfolding transition. When compounds bind to the target prior to heating, they stabilize against unfolding, shifting the ΔTm. […] (3).

Assay [2] has as its target T2, cryAB (Mus musculus, UniProt P23927, R120G).
T2 construct: from tissue; host or cells: excised eyes of R120G cryAB knock-in mice
T2 sequence (P23927 1-175 R120G): T1 sequence (P02511 1-175 R120G) with P39S, S41A, F61I, T170A
The assay can be described thus: Excised eyes from R120G cryAB knock-in mice treated with compound. As to conditions: 100 μM, versus saline control. How it is done: The R120G cryAB knock-in mouse is a clinically-acceptable model of aging-associated and hereditary cataract. The animal model develops severe cataracts within 20 weeks (Andley et al., PLoS One 6, e17671 (2011)). Excised eyes from these mice were treated with 5-cholesten-3b,25-diol (100 μM) or a saline control.

In assay [3] the test system is α-crystallin. As to the kind of experiment: Gel filtration (GPC) analysis of α-crystallin solubility, treated versus fellow untreated eye. The format is in vivo, mice. How it is done:
5-cholesten-3b,25-diol formulated in a saline-cyclodextrin solution (5 mM cyclodextran; 5 mM 5-cholesten-3b,25-diol) was delivered by eye dropper three times a week for two weeks to live mice (n=15). Gel filtration analysis of α-crystallin solubility was conducted by processing samples as previously described by Andley et al. (PLoS ONE, 6:3, 1-13 (2011)). Briefly, degree of aggregation of α-crystallin was determined using gel permeation chromatography (GPC) with light scattering and refractive index (RI) measurements. All data were analyzed using SAS version 9.3 (SAS Institute; Cary, N.C.). To control for differences in assay sensitivity among animals, the area under the curve for α-crystallin in the drug treated eye was compared to the area under the curve generated from the fellow untreated eye and expressed as “percent” difference in area using the untreated eye as the denominator. The percent difference between treated and untreated eyes was compared using the Wilcoxon signed rank test for the null hypothesis of no difference. The association between age and percent difference was calculated using the Spearman rank correlation coefficient. Non-parametric statistical models were used to protect from departures from normality.

The target of assay [4] is T1, R120G cryAB. As to the kind of experiment: 15N HSQC NMR binding site mapping. As to conditions: 15N HSQC NMR chemical shifts.
In assay [5] the target is T1, R120G cryAB. The assay can be described thus: Amyloid formation / aggregation measured by electron microscopy and visual inspection. The assay is classed as biochemical. How it is done:
To test this idea, R120G cryAB (15 μM) was treated with 5-cholesten-3b,25-diol or cholesterol (100 μM) and its ability to aggregate was measured by electron microscopy.

Assay [6] has as its target T1, R120G cryAB. As to the kind of experiment: Biolayer interferometry (Octet Red). The format is binding. As to conditions: biotinylated cryAB on streptavidin-coated pins, equilibrium association data. How it is done:
Measuring affinity for the test protein by biolayer interferometry (Octet Red) allows for the identification of false positives. Briefly, biotinylated cryAB is immobilized to streptavidin-coated pins and equilibrium association data across a hundred-fold concentration range is analyzed to generate the apparent KD. To control for nonspecific binding, the response of a biocytin-blocked pin is subtracted from each sensorgram.

Assay [7] concerns R120G cryAB knock-in mice. The assay can be described thus: Eye drops to live R120G cryAB knock-in mice; slit lens illumination and GPC/light scattering of lens homogenates. The format is in vivo, mouse. As to conditions: 5 mM in saline-cyclodextrin, eye dropper three times a week for two weeks.
Setting [8] is: R120G cryAB 15 μM, compound 100 μM.

The structures appear in SMILES notation. Changes are numbered by the printed parent chain. Where “and” joins values, the source holds several entries; their conditions need not be identical. Identical values can stand only once.

On to `CC(C)CCC[C@@H](C)[C@H]1CC[C@H]2[C@@H]3CC=C4C[C@@H](O)CC[C@]4(C)[C@H]3CC[C@]12C` [5-cholesten-3b-ol], for which the “ACTIVITY (shift in thermal stability at 100 μM)” value in assay [1] is −1.1 °C.

With `C[C@]12CCC(=O)C[C@H]1CC[C@@H]1[C@@H]2CC[C@]2(C)[C@@H](O)CC[C@@H]12` [etiocholan-17b-ol-3-one], the “ACTIVITY (shift in thermal stability at 100 μM)” value in assay [1] is “+1.7 °C”.

Consider `CC(C)CCC[C@@H](C)[C@H]1CC[C@H]2[C@@H]3CC[C@H]4C[C@@H](O)CC[C@]4(C)[C@H]3CC[C@]12C` [5a-cholestan-3b-ol-6-one, (2R,5S,7S,15R)-5-hydroxy-2,15-dimethyl-14-(6-methylheptan-2-yl)tetracyclo [8.7.0.0^{2,7}.0^{11,15}] heptadecan-8-one], for which the “ACTIVITY (shift in thermal stability at 100 μM)” value in assay [1] is −3.0 °C.

In the case of `C[C@H](CCCC(C)(C)O)[C@H]1CC[C@H]2[C@@H]3CC=C4C[C@@H](O)CC[C@]4(C)[C@H]3CC[C@]12C` [5-cholesten-3b,25-diol], the “aggregation of cryAB” value in assay [2] is given as “significantly reduced the aggregation of cryAB”. Besides, the cryAB solubility result in assay [2] is “improved cryAB solubility”; in assay [7], “significantly improved cryAB solubility”. The “Percent difference in area between untreated and treated eyes, Mean” value in assay [3] (Age 66 days) stood at 177.2%; in assay [3] (Age 79 days), 98.1%; in assay [3] (Age 184 days), 61.4%; in assay [3] (Age 192 days), 22.7%; in assay [3] (Age 200 days) it was 38.7%; in assay [3] (Age 266 days), 1376.3%. Moreover, the “Percent difference in area between untreated and treated eyes, Mean” value in assay [3] (All ages) was 381.2±974.6% and 381.2%. Moreover, the “Percent difference in area between untreated and treated eyes, Median” value in assay [3] (Age 66 days) is on record as −20.2%; in assay [3] (Age 79 days) it was 98.1%; in assay [3] (Age 184 days), 61.4%; in assay [3] (Age 192 days) it was 55.8%; in assay [3] (Age 200 days) it was 31.8%; in assay [3] (Age 266 days), 679.0%. In assay [3] (All ages), the “Percent difference in area between untreated and treated eyes, Median” value came out at 63.3%. Also, in assay [3] (eye drops 5 mM three times a week for two weeks, Wilcoxon signed rank), the “area under the curve of α-crystallin, drug treated eyes versus fellow untreated eyes” value is “statistically significantly higher”. In addition, the “binding site on R120G cryAB” value in assay [4] is given as “binds a groove across the cryAB dimer interface”. Moreover, the “amyloid formation (electron microscopy)” value in assay [5] (setting [8]) is “dramatically suppressed amyloid formation”. Besides, the “opacity of the R120G cryAB mixture (visual inspection)” value in assay [5] (setting [8]) is listed as “reduced the opacity”. Besides, the “aggregation of pre-formed R120G cryAB amyloids” value in assay [5] (pre-formed amyloids) is recorded as “reversed the aggregation”. In addition, the “ACTIVITY (shift in thermal stability at 100 μM)” value in assay [1] is −2.0 °C. This molecule had a Kd in assay [6] of 10.1 ± 4.4 µM. The lens transparency result in assay [7] is “improved lens transparency”. Besides, in assay [7], the “rescued cataract phenotypes (treated mice)” value is reported as 10/15.

Take `CC(C)CCC[C@@H](C)[C@H]1CC[C@H]2[C@@H]3CC=C4C[C@@H](O)CC[C@]4(C)[C@H]3CC[C@]12C` [cholesterol, reference compound]: in assay [5] (setting [8]), the “amyloid formation (electron microscopy)” value is recorded as “not”. The “activity in DSF” value in assay [1] (focused sterol collection) is “inactive”.

The values above are taken from patent publication US9675623B2, “Non-surgical method of treatment for cataract” (THE REGENTS OF THE UNIVERSITY OF MICHIGAN, priority 2012, dated 2017).
